Key:
[1] = test system: TNFalpha release in human peripheral blood mononuclear cells (PBMC) stimulated with LPS; test: Inhibition of LPS induced TNFalpha release in human PBMCs; assay type: cell-based; settings: 1 ng/mL LPS, 24 hours, reported as range bins, read-out: Inhibition of LPS induced TNFalpha release in human PBMCs pIC30 (-log IC30)
Protocol: Method for Measuring the Inhibition of TNFalpha Release in Human Peripheral Blood MononuClear Cells (PBMC) Stimulated with LPS:
Assay was performed with some modifications of the method described by Hatzelmann and Schudt (Hatzelmann and Schudt 2001, J. Pharmacol. Exp. Therapeutics 297: 267-279) and the protocol “drawing of venous blood from healthy volunteers for in vitro studies” was approved by the ethics committee of the Landesärztekammer Baden Württemberg in Stuttgart. Peripheral blood mononuclear cells (PBMCs) were isolated from venous blood with the anticoagulant citrate from healthy donors according to standard protocols using Ficoll. The cell layer of PBMCs were washed twice with phosphate buffer solution and equilibrated at room temperature for 60 minutes. 500,000 PBMCs in 180 microL RPMI1640 cell medium supplemented with 10% FCS, NEAA (Non-essential-amino-acids), L-Glutamine and Sodium Pyruvate per sample were pre-incubated with 10 microL of a serial dilution of test compound or piclamilast as positive control for 60 min. at 37° C. After pre-incubation blood samples were stimulated by the addition of 10 microL LPS (Sigma, Aldrich) per sample resulting in a final concentration of 1 ng/mL LPS and a final volume of 200 microL. Cells were incubated for 24 hours at 37° C. TNFalpha levels were determined from cell supernatant that was obtained by a centrifugation step and transferring the supernatant to a new 96-well plate. Content of TNFalpha was determined via alphaLISA Technology according to manufacture protocol (Perkin Elmer).
(§1) PBMC samples that were not stimulated with LPS were used as control and set for 100% inhibition. PBMC samples that were stimulated with LPS and solvent instead of test compound were set as 0% inhibition. Percent inhibition was calculated based on these controls for each sample and since most compounds achieved saturating maximal inhibition of 60% a pIC30 value was calculated with GraphPad Prism Software.
For the following compounds the inhibitory values of TNFalpha release [determined as −log IC30=pIC30] in human PBMCs between 5.0 and 5.9, between 6.0 and 6.9, between 7.0 and 7.9 and between 8.0 and 9.0 have been determined. The numbers of the compounds correspond to the examples numbers.
Inhibition of LPS Induced TNFalpha Release Assay in Human PBMCs: pIC30

[2] = test system: TNFalpha release in human whole blood stimulated with LPS; test: Inhibition of LPS induced TNFalpha release in human whole blood; assay type: cell-based; settings: 1 microg/mL LPS, 4 hours, reported as range bins, read-out: Inhibition of LPS induced TNFalpha release in human whole blood pIC30 (-log IC30)
Protocol: Method for Measuring the Inhibition of TNFalpha Release in Human Whole Blood Stimulated with LPS:
Assay was performed with some modifications of the method described by Hatzelmann and Schudt (Hatzelmann and Schudt (2001) JPET 297: 267-279) and the protocol “drawing of venous blood from healthy volunteers for in vitro studies” was approved by the ethics committee of the Landesärztekammer Baden Württemberg in Stuttgart.
Heparinised venous blood was equilibrated to assay conditions for 1 hour at room temperature upon blood drawing. Immediately thereafter, 200 microL whole blood per sample were pre-incubated with 25 microL of a serial dilution of test compound or piclamilast as positive control for 30 min. at 37° C. After pre-incubation blood samples were stimulated by the addition of 25 microL lipopolysaccharide (LPS) (Sigma, Aldrich) per sample resulting in a final concentration of 1 microg/mL LPS and a final volume of 250 microL. Cells were incubated for 4 hours at 37° C. TNFalpha levels were determined from plasma that was obtained by a centrifugation step and transferring the supernatant to a new 96-well plate which was again centrifuged and clear plasma supernatant was used for the measurement of TNFalpha via alphaLISA Technology according to manufacture protocol (Perkin Elmer).
as §1, with “Whole blood” for “PBMC”
For the following compounds the inhibitory values of TNFalpha release [determined as −log IC30=pIC30] in the human whole blood assay between 4.5 and 4.9, between 5.0 and 5.9 and between 6.0 and 6.9 have been determined. The numbers of the compounds correspond to the examples numbers.
Inhibition of LPS Induced TNFalpha Release Assay in Human Whole Blood: pIC30

human EP2 receptor = biological target: T1, human EP2 receptor (Homo sapiens, UniProt P43116); test: EP2 binding assay (PGE2 displacement); settings: recombinant human EP2 membranes, 1 nanoM [3H]-PGE2; reported as range bins; read-out: EP2 binding (PGE2 displacement) pIC50 (-log IC50) (converted)
T1 construct: purchased Millipore
Protocol: Method for Measuring Inhibition of PGE2 Binding to the Human Prostanoid Receptor EP2:
Human EP2 receptor equilibrium competition binding assays were performed according to Abramovitz et al. (M. Abramovitz et al. 2000, Biochimica et Biophysica Acta 1483: 285-293) in a final incubation volume of 100 microL in 50 milliM Bis-Tris, pH6.0 in 96-well plates. Radiolabelled Prostaglandin E2 (PGE2) (1 nanoM [^3H]-PGE2 purchased from Perkin Elmer) was added to the assay as competitive ligand. Test compounds stored as Dimethylsulfoxide (DMSO) stock solutions were added to the assay in serial dilutions in assay buffer while keeping the final DMSO concentration equal in each sample. The reaction was initiated by addition of membrane proteins harbouring human EP2 receptor (ChemiSCREEN™ membrane preparation recombinant human EP2 prostanoid receptor that was purchased by Millipore). Total binding was determined in the absence of test compound or PGE2 and non-specific binding was determined in the presence of 1 microM PGE2. Incubations were conducted for 60 minutes at room temperature until equilibrium was reached and terminated by filtration through GF/B filter (Perkin Elmer) prewetted with 0.3% PEI solution. Unbound radiolabelled PGE2 was removed by 8 wash cycles with the same buffer under ice-cold conditions and the filters containing the residual radioactivity were dried for 60 minutes at 60° C. In order to measure the filter bound radioactivity, 40 microL microscint (scintillation liquid) was added to each filter and the chemiluminescence was determined by TopCount-NTX™. The specific binding was calculated by subtracting non-specific binding from each sample. Percent inhibition by test compounds was calculated based on specific binding without test compound. Each sample was measured in triplicates per experiment and for the calculation of the pIC50 at least 2 independent experiments were performed. Determination of half maximal inhibiting concentration (IC50) was performed with GraphPad Prism Software.
The numbers of the compounds correspond to the examples numbers.
EP2 Binding Assay (PGE2 Displacement): pIC50 Values

[3] = biological target: T2, human prostanoid receptor EP2 (Homo sapiens, UniProt P43116); test: EP2 cAMP release assay in CHOp6CreLuc-huEP2 cells (CRE-luciferase readout); assay type: cell-based; settings: CHOp6CreLuc-huEP2 cells, 4 hours at 37° C.; reported as range bins; read-out: EP2 cAMP release assay pEC50 (-log EC50) (converted)
T2 construct: expressed in transfected cells; host or cells: CHO-K1 (CHOp6CreLuc-huEP2)
Protocol: Method for Measuring cAMP Release in Human EP2 Stably Transfectant Cells:
The potency and efficacy of EP2 agonists have been determined via measuring cAMP release in stably transfectant CHO-K1 cell expressing the human prostanoid receptor EP2 and luciferase enzyme regulated via a 6 times CRE (cAMP response element) containing transcriptional promoter. CHOp6CreLuc-huEP2 cells were seeded into 384-well plate (1000 cells per well) in DMEM/F12 (Dulbecco's Modified Eagle Medium/Nutrient Mixture F12) cell culture medium containing 2% FCS (Fetal Calf Serum) and 500 μg/ml G418 24 hours prior to the experiment. Test compound was added as serial dilutions while keeping the final DMSO concentration constant in each well. […] Cells were incubated together with test compound or butaprost for 4 hours at 37° C. The cAMP release was determined indirectly via luciferase activity that directly correlated to the amount of luciferase enzyme expressed in response to cAMP regulated promoter activity. The luciferase activity was determined by addition of luciferin containing buffer and subsequent quantification of resulting luminescence. Each sample was measured in quadruplicates per experiment and half-maximal effective concentration (EC50) and relative maximal effect compared to butaprost was determined from 3 independent experiments with GraphPad Prism Software. A compound that achieved over 80% of the maximal effect of butaprost was considered as full agonist.
For the following compounds the potency was determined in the cAMP release assay applying human EP2 transfectant CHOp6CreLuc-huEP2 cells. […] The numbers of the compounds correspond to the examples numbers.
EP2 cAMP Release Assay: pEC50

T1 sequence (P43116 whole entry): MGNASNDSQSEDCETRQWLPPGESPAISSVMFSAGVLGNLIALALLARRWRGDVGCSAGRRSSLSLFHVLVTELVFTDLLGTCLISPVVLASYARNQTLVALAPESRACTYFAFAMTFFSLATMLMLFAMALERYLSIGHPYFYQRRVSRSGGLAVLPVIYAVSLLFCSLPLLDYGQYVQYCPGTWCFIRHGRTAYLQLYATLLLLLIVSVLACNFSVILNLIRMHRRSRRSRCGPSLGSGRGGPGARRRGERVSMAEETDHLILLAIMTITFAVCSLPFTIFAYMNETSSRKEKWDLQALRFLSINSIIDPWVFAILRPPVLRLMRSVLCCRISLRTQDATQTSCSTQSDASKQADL
T2 sequence (P43116 whole entry): as above

IC50 (human EP2 receptor) [nM] | EC50 [3] [nM] | SMILES | IC30 [1] [nM] | IC30 [2] [nM]
12.6 to 100 | 0.126 to 1 | O=C(O)/C=C/c1ccc(F)c(NC(=O)c2cc(N3CCCCC3)cc3ccccc23)c1 [Example 22, (2E)-3-[4-fluoro-3-({[3-(piperidin-1-yl)naphthalen-1-yl]carbonyl}amino)phenyl]prop-2-enoic acid] | 12.6 to 100 | 1260 to 10000
1.26 to 10 | 0.00631 to 0.1 | O=C(O)/C=C/c1cccc(NC(=O)c2cc(-c3cccc(O)c3)cc3ccccc23)c1 [Example 19, (2E)-3-[3-({[3-(3-hydroxyphenyl)naphthalen-1-yl]carbonyl}amino)phenyl]prop-2-enoic acid] | 12.6 to 100 | 126 to 1000
